Data reported in ChEMBL document CHEMBL2007661, “Compounds: GSK PKIS; Assays: UNC Frye lab” (2012).
Several values for one entry are separate records, joined by “and”; a condition that tells them apart may be missing. Equal values may be shown once.

Assays:
Conditions in all cases: at 1 µM
[1] = target: T1, Serine/threonine-protein kinase TBK1 (Homo sapiens) (UniProt Q9UHD2)
T1 sequence (whole entry): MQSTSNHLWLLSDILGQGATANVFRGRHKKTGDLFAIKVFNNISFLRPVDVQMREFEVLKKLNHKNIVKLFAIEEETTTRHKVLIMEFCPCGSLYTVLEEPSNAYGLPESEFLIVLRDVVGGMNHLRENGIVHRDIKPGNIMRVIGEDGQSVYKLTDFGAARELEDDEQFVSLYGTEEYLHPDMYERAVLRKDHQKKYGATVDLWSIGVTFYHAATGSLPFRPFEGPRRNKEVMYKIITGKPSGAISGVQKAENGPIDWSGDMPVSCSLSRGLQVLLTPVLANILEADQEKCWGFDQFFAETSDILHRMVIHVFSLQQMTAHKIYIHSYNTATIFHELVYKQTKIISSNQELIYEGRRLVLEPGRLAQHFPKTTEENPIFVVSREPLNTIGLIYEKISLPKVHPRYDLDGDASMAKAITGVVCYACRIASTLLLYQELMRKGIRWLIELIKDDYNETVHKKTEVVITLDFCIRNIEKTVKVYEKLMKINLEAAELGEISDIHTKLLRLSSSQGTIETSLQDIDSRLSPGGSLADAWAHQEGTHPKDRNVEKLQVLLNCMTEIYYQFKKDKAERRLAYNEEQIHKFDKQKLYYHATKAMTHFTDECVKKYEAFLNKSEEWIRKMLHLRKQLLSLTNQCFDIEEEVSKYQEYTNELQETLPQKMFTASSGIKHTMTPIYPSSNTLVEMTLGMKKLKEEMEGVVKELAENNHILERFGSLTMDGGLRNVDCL

[2] = target: T2, Inhibitor of nuclear factor kappa-B kinase subunit beta (Homo sapiens) (UniProt O14920)
T2 sequence (whole entry): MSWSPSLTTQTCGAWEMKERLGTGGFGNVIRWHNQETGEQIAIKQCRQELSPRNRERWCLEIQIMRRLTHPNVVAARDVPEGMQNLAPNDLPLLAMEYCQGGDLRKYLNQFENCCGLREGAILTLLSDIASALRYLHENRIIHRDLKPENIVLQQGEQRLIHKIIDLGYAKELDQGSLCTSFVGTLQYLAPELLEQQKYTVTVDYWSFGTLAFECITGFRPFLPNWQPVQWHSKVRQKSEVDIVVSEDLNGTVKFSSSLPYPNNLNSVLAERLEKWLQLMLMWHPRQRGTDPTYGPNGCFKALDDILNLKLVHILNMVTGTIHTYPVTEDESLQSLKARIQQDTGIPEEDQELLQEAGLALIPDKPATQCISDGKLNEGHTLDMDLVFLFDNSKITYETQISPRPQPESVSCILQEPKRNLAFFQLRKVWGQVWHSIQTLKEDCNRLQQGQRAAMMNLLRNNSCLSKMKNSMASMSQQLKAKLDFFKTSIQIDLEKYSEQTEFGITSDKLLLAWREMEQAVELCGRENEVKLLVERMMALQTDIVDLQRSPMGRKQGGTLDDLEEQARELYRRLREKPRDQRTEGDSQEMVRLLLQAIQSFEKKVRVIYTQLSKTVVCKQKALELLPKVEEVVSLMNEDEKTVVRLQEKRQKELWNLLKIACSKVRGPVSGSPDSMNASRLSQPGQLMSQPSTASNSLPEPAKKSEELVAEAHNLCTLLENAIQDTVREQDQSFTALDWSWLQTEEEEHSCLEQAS

[3] = target: T3, Inhibitor of nuclear factor kappa-B kinase subunit alpha (Homo sapiens) (UniProt O15111)
T3 sequence (whole entry): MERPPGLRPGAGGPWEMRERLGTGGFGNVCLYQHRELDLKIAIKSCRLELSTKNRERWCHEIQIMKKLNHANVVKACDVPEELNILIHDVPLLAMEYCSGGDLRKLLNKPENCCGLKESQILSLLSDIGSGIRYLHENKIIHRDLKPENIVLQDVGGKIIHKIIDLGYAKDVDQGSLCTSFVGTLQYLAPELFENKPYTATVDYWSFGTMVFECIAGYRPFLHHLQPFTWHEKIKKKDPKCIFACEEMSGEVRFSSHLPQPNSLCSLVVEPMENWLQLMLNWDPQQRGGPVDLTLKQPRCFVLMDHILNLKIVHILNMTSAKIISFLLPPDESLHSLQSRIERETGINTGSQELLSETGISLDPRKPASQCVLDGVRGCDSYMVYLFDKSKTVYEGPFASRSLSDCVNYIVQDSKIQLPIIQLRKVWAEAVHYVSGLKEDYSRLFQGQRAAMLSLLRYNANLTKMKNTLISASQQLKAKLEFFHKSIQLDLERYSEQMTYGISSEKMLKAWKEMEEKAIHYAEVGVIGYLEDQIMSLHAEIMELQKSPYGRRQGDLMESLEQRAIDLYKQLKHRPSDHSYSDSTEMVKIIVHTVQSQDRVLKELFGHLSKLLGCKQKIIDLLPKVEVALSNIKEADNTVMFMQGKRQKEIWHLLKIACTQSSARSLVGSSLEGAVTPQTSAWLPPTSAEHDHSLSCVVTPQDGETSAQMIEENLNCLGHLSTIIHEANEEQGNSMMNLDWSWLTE

Row | Structure (SMILES) | inhibition [1] | inhibition [2] | inhibition [3]
1 | COc1cc2ncn(-c3cc(O[C@H](C)c4ccccc4Cl)c(C(N)=O)s3)c2cc1OC | 2% and 0% | 0% and -8% | -2% and 4%
2 | CN(C)c1cc2c(Nc3ccc4c(cnn4Cc4ccccc4)c3)ncnc2cn1 | 2% and -3% | -3% and -2% | 1% and 2%
3 | CCn1c(-c2nonc2N)nc2cncc(C(=O)NCCNC)c21 | 17% and 13% | 1% and -2% | 30%
4 | CCNC(=O)O[C@H]1CN[C@H](C#Cc2cc3ncnc(Nc4ccc(OCc5cccc(F)c5)c(Cl)c4)c3s2)C1 | 0% and 3% | -5% and -3% | 4% and 5%
5 | Cc1ccc(NC(=O)c2ccoc2)cc1-c1ccc(C(=O)NCC2CC2)cc1 | 1% and 2% | -5% | 5% and 4%
6 | NC(=O)c1cccc(Nc2nccc(Nc3cccc4[nH]ncc34)n2)c1 | 45% and 44% | -2% and 2% | -5%
7 | O=C1Nc2ccccc2/C1=C1\CCc2cc(O)ccc21 | 25% and 30% | -3% and -4% | 1% and 0%
8 | COc1cc(N2CCN(C(C)C)CC2)ccc1Nc1nc(Nc2cccc(F)c2C(=O)O)c2cc[nH]c2n1 | -3% and 0% | -4% and -3% | 2% and 3%
9 | NS(=O)(=O)c1ccc(NC=C2C(=O)Nc3ccc4ncsc4c32)cc1 | 89% and 88% | -3% and -2% | 2% and 6%
10 | CCCN1CCCC(c2ccc(Nc3nc(Nc4cc(F)ccc4C(N)=O)c4cc[nH]c4n3)c(OC)c2)C1 (stereo not drawn) | 9% and 11% | -1% and 1% | -4% and -3%
11 | CN(C)c1ccc2c(c1)/C(=C/Nc1ccc(S(N)(=O)=O)cc1)C(=O)N2 | 76% and 74% | -3% | 0% and -1%
12 | O=C1NC(=O)C(c2cccc(Cl)c2)=C1Nc1ccc(O)c(Cl)c1 | 58% and 55% | -6% and -9% | 3% and 4%
13 | Cc1ccc(C(=O)NC2CC2)cc1-c1ccc2[nH]ncc2c1 | 0% and 2% | 0% | 0%
14 | COc1cc2ncn(-c3cc(OCCc4ccccc4)c(C(N)=O)s3)c2cc1OC | 65% and 61% | 8% and 3% | -2%
15 | Cc1ccc(Nc2ccnc(Nc3cccc(C(N)=O)c3)n2)cc1O | 27% | -3% and -2% | 2%
16 | CS(=O)(=O)CCNCc1cc(-c2cc3c(Nc4ccc(OCc5cccc(F)c5)c(Cl)c4)ncnc3s2)cs1 | 0% | -8% and 5% | 16% and 15%
17 | C/C(Nc1ccc(S(N)(=O)=O)cc1)=C1/C(=O)Nc2ccccc21 | 11% and 14% | -3% and -2% | 2% and 1%
18 | CCn1c(-c2nonc2N)nc2c(C#CC(C)(C)O)nc(O[C@@H](CN)c3ccccc3)cc21 | 85% and 87% | -3% and -4% | 17% and 19%
19 | COc1cccc(COc2cc(-n3cnc4ccccc43)sc2C(N)=O)c1 | 2% and 0% | -5% and -4% | 4% and 3%
20 | CS(=O)(=O)Nc1ccc(-c2ccc3c(NC(=O)C4CC4)n[nH]c3c2)cc1 | 3% and 5% | -3% and 2% | 5% and 3%

Next, values leading:

Row | inhibition [1] | inhibition [2] | inhibition [3] | Structure (SMILES)
21 | 2% and 0% | -3% | 18% and 0% | Fc1ccc(-c2ncn(C3CCNCC3)c2-c2ccnc(Oc3ccc(F)c(F)c3)n2)cc1
22 | 49% | -3% and -2% | 2% and 1% | COc1ccc2c(-c3ccnc(Nc4cccc(OC(F)(F)F)c4)n3)cnn2n1
23 | -6% and -3% | -4% and -5% | -2% and 3% | COc1ccc(-c2nn3ncccc3c2-c2ccnc(Nc3ccc(Cl)c(C(F)(F)F)c3)n2)cc1
24 | -7% and -1% | -4% and 2% | 2% | NS(=O)(=O)c1cccc(-c2cc3ccncc3cc2OCc2ccccc2)c1
25 | -2% and -1% | -4% and -10% | 5% and 4% | c1ccc(-c2n[nH]cc2-c2ccnc(-c3ccc(OCCN4CCOCC4)cc3)c2)nc1
26 | 2% and 3% | 0% and -2% | -4% | Fc1ccc(-c2c(-c3ccncc3)nc3n2CCS3)cc1
27 | 5% and 6% | -1% and -3% | 0% | CN(C)CCOc1ccc(-c2cc(-c3ccc4c(c3)CCC4=NO)c(-c3ccncc3)o2)cc1
28 | -4% and -1% | -2% | 5% | COc1ccc2cc(-c3c(-c4ccncc4)nc(-c4ccc(S(C)(=O)=O)cc4C)n3C)ccc2c1
29 | -5% and 1% | -1% and -5% | 9% and 1% | Cc1ccc2c(-c3ccnc(Nc4ccc5c(c4)OCCO5)n3)c(-c3ccc(C(F)(F)F)cc3)nn2n1
30 | 55% and 52% | -3% and -6% | 1% | CCOc1ccc2c(-c3ccnc(Nc4cccc(C(F)(F)F)c4)n3)cnn2n1
31 | 8% and 3% | -2% and -1% | -2% and -1% | N#Cc1ccc(Oc2nccc(-c3c(-c4ccc(F)cc4)ncn3C3CCNCC3)n2)cc1
32 | 1% and -2% | -1% and 4% | 2% and 3% | COc1ccc2ncnc(Nc3ccc(OCc4ccccc4)cc3)c2c1
33 | 11% and 9% | 1% and 0% | -1% | O=C(O[C@H]1CN[C@H](C#Cc2cc3ncnc(Nc4ccc5c(ccn5Cc5cc(F)ccc5F)c4)c3s2)C1)N1CCOCC1
34 | -1% | 0% and -1% | 2% and -8% | CS(=O)(=O)CCNCc1coc(-c2ccc3ncnc(Nc4ccc(OCc5ccccc5)cc4)c3c2)c1
35 | -1% | 4% and -1% | 1% and -2% | N#Cc1ccc2c(-c3ccnc(NC4CC4)n3)c(-c3ccc(F)cc3)nn2c1
36 | 2% and 6% | -2% and -3% | 2% and 1% | CN(C)c1cc2c(Nc3ccc4nc(Cc5ccccc5)[nH]c4c3)ncnc2cn1
